Experimental findings from publication PMC6934184, “Selective DNA-PKcs inhibition extends the therapeutic index of localized radiotherapy and chemotherapy” (The Journal of Clinical Investigation, 2019) are described below.

SMILES strings stand for the structures.

The target in the test is T1, MAP4K5 (KHS1) (Homo sapiens, UniProt Q9Y4K4).
T1 construct: purchased Thermo Fisher Scientific (Life Technologies) SelectScreen
Briefly: SelectScreen Z'LYTE. The test is classed as biochemical. The procedure, abridged:
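Percent values come from Thermo SelectScreen profiling of NU5455, combining activity and binding assays. CSF1R was run in Z'LYTE format at Km app ATP, and CAMK1 in Adapta format with ATP listed at 10.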

T1 sequence (Q9Y4K4 whole entry): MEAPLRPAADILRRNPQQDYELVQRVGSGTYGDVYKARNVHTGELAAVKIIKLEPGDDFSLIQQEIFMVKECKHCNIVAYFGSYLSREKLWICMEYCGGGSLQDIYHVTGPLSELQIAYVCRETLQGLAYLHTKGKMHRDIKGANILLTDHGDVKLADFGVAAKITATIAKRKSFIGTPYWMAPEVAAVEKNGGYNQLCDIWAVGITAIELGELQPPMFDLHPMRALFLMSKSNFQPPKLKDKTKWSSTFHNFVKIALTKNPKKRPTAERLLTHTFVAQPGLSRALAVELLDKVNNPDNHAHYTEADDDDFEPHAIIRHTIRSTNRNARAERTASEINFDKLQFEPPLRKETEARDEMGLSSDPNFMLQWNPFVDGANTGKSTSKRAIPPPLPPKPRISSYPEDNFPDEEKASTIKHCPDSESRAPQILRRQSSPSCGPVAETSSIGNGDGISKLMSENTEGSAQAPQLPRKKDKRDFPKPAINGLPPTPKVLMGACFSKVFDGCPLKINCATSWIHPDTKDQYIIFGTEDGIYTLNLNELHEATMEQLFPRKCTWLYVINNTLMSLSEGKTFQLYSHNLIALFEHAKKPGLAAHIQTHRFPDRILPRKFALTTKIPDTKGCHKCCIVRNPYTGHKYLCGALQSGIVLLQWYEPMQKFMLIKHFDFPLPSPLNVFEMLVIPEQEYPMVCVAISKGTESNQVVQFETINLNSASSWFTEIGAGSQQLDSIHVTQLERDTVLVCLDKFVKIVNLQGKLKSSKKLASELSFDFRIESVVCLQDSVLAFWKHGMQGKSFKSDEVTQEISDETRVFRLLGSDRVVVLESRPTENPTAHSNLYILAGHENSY

Usually inhibition stands for the drop in the measured response relative to a control, in per cent. As to `CN(C(=O)CN1CCOCC1)c1ccc2sc3c(-c4cccc5c(=O)cc(N6CC7CCC(C6)O7)oc45)cccc3c2c1` [NU5455], the inhibition at 1 µM was -2%.
